# Source: US20130131161A1, “METHODS AND COMPOSITIONS FOR CARDIOVASCULAR DISEASES AND CONDITIONS” (priority 2009, published 2013)
# Values joined by “and” are separate entries in the source; they are usually repeats but may differ in a detail not shown here. Equal values may be shown once.
# Tested on: eNOS
# Experiment: eNOS protein abundance in HUVECs by immunochemical methods (Example 2)
# Type: cell-based, human
# Conditions: for eNOS protein abundance (mean ± sd): pg/ug total protein; for Fold difference eNOS protein abundance (mean ± sd): (LA-419 5 μM)/(control)
# Source text: eNOS Activity and Protein Abundance Measurements
# Using immunochemical methods, there was no change in any condition in relation to eNOS protein abundance, Tables ss-L1.
smiles,measurement,setting,value
"CC(=O)SC1COC2C(O[N+](=O)[O-])COC12 (stereo not drawn) [LA-419, S-(6-Nitro-oxi-hexahydro-furo[3,2-b]furan-3-1-il)thioacetate]",eNOS protein abundance % Change (mean ± sd),"5 μM LA-419, Intron 4 variant b/a, a/a, c/c (n=14)",0.32 (9.26) %
same,eNOS protein abundance % Change (mean ± sd),"5 μM LA-419, Intron 4 variant b/b (n=31)",−1.78 (6.88) %
same,eNOS protein abundance (mean ± sd),"5 μM LA-419, G894T + T786C G/G + T/C, n=8",6.27 (1.56) pg/ug
same,eNOS protein abundance (mean ± sd),"5 μM LA-419, G894T + T786C G/G + T/T, n=18",6.17 (1.24) pg/ug
same,eNOS protein abundance (mean ± sd),"5 μM LA-419, G894T + T786C G/T + C/C, n=1",7.25 (0) pg/ug
same,eNOS protein abundance (mean ± sd),"5 μM LA-419, G894T + T786C G/T + T/C, n=13",5.59 (1.08) pg/ug
same,eNOS protein abundance (mean ± sd),"5 μM LA-419, G894T + T786C G/T + T/T, n=4",5.82 (1.49) pg/ug
same,eNOS protein abundance (mean ± sd),"5 μM LA-419, G894T + T786C T/T + C/C, n=3",6.47 (1.34) pg/ug
same,eNOS protein abundance (mean ± sd),"5 μM LA-419, G894T + T786C T/T + T/C, n=2",4.52 (0.30) pg/ug
same,eNOS protein abundance (mean ± sd),"5 μM LA-419, G894T G/G, n=26",6.20 (1.31) pg/ug
same,eNOS protein abundance (mean ± sd),"5 μM LA-419, G894T G/T & T/T, n=23",5.72 (1.20) pg/ug
same,eNOS protein abundance (mean ± sd),"5 μM LA-419, G894T G/T, n=18",5.73 (1.17) pg/ug
same,eNOS protein abundance (mean ± sd),"5 μM LA-419, G894T T/T, n=5",5.69 (1.44) pg/ug
same,eNOS protein abundance (mean ± sd),"5 μM LA-419, Genotype Combination, n=31 (title: Combination = G/G + T/T, G/G + T/C, G/G/+C/C, G/T + T/T, G/T + T/C, G/T + C/C, T/T + T/C)",5.86 (1.30) pg/ug
same,eNOS protein abundance (mean ± sd),"5 μM LA-419, Genotype Reference, n=18 (title: Reference group = T/T + C/C)",6.17 (1.24) pg/ug
same,eNOS protein abundance (mean ± sd),"5 μM LA-419, Intron 4 a/a, n=3",7.17 (1.19) pg/ug
same,eNOS protein abundance (mean ± sd),"5 μM LA-419, Intron 4 b/a, a/a, c/c, n=14",6.31 (1.50) pg/ug
same,eNOS protein abundance (mean ± sd),"5 μM LA-419, Intron 4 b/a, n=10",5.95 (1.56) pg/ug
same,eNOS protein abundance (mean ± sd),"5 μM LA-419, Intron 4 b/b, n=31",5.75 (1.13) pg/ug
same,eNOS protein abundance (mean ± sd),"5 μM LA-419, Intron 4 c/c, n=1",7.39 (0) pg/ug
same,eNOS protein abundance (mean ± sd),"5 μM LA-419, T-786C CC, n=4",6.67 (1.16) pg/ug
same,eNOS protein abundance (mean ± sd),"5 μM LA-419, T-786C T/C & C/C, n=27",5.87 (1.30) pg/ug
same,eNOS protein abundance (mean ± sd),"5 μM LA-419, T-786C T/C, n=23",5.73 (1.29) pg/ug
same,eNOS protein abundance (mean ± sd),"5 μM LA-419, T-786C T/T, n=22",6.11 (1.26) pg/ug
same,eNOS protein abundance % Change (mean ± sd),"5 μM LA-419 vs control, n=2",−4.89 (0.49) %
same,eNOS protein abundance % Change (mean ± sd),"5 μM LA-419 vs control, G894T G/G, n=26",−1.07 (8.07) %
same,eNOS protein abundance % Change (mean ± sd),"5 μM LA-419 vs control, G894T G/T, n=18",−0.79 (7.54) %
same,eNOS protein abundance % Change (mean ± sd),"5 μM LA-419 vs control, G894T T/T, n=5",−1.54 (6.56) %
same,eNOS protein abundance % Change (mean ± sd),"5 μM LA-419 vs control, Intron 4 a/a, n=3",1.11 (10.89) %
same,eNOS protein abundance % Change (mean ± sd),"5 μM LA-419 vs control, Intron 4 b/a, n=10",0.68 (9.65) %
same,eNOS protein abundance % Change (mean ± sd),"5 μM LA-419 vs control, Intron 4 b/b, n=31",−1.78 (6.88) %
same,eNOS protein abundance % Change (mean ± sd),"5 μM LA-419 vs control, Intron 4 c/c, n=1",−5.66 (0) %
same,eNOS protein abundance % Change (mean ± sd),"5 μM LA-419 vs control, Race Asian, n=1",−17.56 (0) %
same,eNOS protein abundance % Change (mean ± sd),"5 μM LA-419 vs control, Race Black, n=12",−5.95 (6.82) %
same,eNOS protein abundance % Change (mean ± sd),"5 μM LA-419 vs control, Race Caucasian, n=26",2.50 (6.89) %
same,eNOS protein abundance % Change (mean ± sd),"5 μM LA-419 vs control, Race Hispanic, n=6",−1.16 (4.99) %
same,eNOS protein abundance % Change (mean ± sd),"5 μM LA-419 vs control, Race Not Reported, n=2",−4.62 (0.81) %
same,eNOS protein abundance % Change (mean ± sd),"5 μM LA-419 vs control, T-786C C/C, n=4",−6.82 (6.09) %
same,eNOS protein abundance % Change (mean ± sd),"5 μM LA-419 vs control, T-786C T/C, n=23",−0.37 (9.0) %
same,eNOS protein abundance % Change (mean ± sd),"5 μM LA-419 vs control, T-786C T/T, n=22",−0.64 (5.88) %
same,Fold difference eNOS protein abundance (mean ± sd),"Combination of all G894T + T-786C genotypes but G/G + T/T, n=31",0.99 (0.09)
same,Fold difference eNOS protein abundance (mean ± sd),"Combination of all G894T + T-786C genotypes but T/T + C/C, n=46",0.99 (0.08)
same,Fold difference eNOS protein abundance (mean ± sd),"G894T + T-786C G/G + T/C, n=8",0.98 (0.12)
same,Fold difference eNOS protein abundance (mean ± sd),"G894T + T-786C G/G + T/T, n=18",0.99 (0.06)
same,Fold difference eNOS protein abundance (mean ± sd),"G894T + T-786C G/T + C/C, n=1",0.88 (0)
same,Fold difference eNOS protein abundance (mean ± sd),"G894T + T-786C G/T + T/C, n=13",1.00 (0.07)
same,Fold difference eNOS protein abundance (mean ± sd),"G894T + T-786C G/T + T/T, n=4",1.00 (0.08)
same,Fold difference eNOS protein abundance (mean ± sd),"G894T + T-786C T/T + C/C, n=3",0.95 (0.06)
same,Fold difference eNOS protein abundance (mean ± sd),"G894T + T-786C T/T + T/C, n=2",1.04 (0.01)
same,Fold difference eNOS protein abundance (mean ± sd),"G894T G/G & G/T, n=44",0.99 (0.08)
same,Fold difference eNOS protein abundance (mean ± sd),"G894T G/G, n=26",1.00 (0.08) and 0.99 (0.08)
same,Fold difference eNOS protein abundance (mean ± sd),"G894T G/T & T/T, n=23",0.99 (0.07)
same,Fold difference eNOS protein abundance (mean ± sd),"G894T G/T, n=18",0.99 (0.08)
same,Fold difference eNOS protein abundance (mean ± sd),"G894T T/T, n=5",0.98 (0.07)
same,Fold difference eNOS protein abundance (mean ± sd),"Intron 4 a/a, n=3",1.01 (0.11)
